Results reported in patent publication US12404243B2, “Inhibitors of the Wnt/beta-catenin pathway” (The Regents of the University of California, priority 2018, dated 2025).
“Also recorded” adds a separate entry of the source.

What was measured:
[1] = tested on: Wnt/β-catenin-mediated transcription; experiment: Topflash reporter activity induced by LiCl in 293T/Top cells; format: cell-based; conditions: 20 mM LiCl, increasing concentration of JC001 (FIG. 5A)
Protocol: (§1) 293T cells were maintained in DMEM medium containing 10% FBS and antibiotics (penicillin and streptomycin) at 37° C. in 5% CO2. Cells were stably infected with lentiviruses expressing the TopFlash reporter (293T/Top cells). The β-catenin mutant (β-cat*, the constitutively active mutant) construct was prepared using the retroviral expression vector by standard PCR. For viral transduction, retrovirus was obtained by co-trasfection of pQCXIP-β-cat* with packaging plasmids into 293T cells following the manufacturer's instructions. 293T/Top stable cells were seeded in 10 cm dish and incubated overnight. The next day cells were treated with retroviral particles. After 12 hours, the medium was replaced with fresh medium. 2 days post virus infection, the cells were selected with puromycin for 5 days to generate the 293T/Top/β-cat* stable cell line.

[2] = tested on: Wnt/β-catenin-mediated transcription; experiment: TCF-luciferase activity assay in 293T/Top/β-cat* cells; format: cell-based; conditions: summary of FIGS. 5A, B (293T/Top cells + LiCl) and 6A-C (293T/Top/β-cat* cells)
Protocol: as §1
293 T/Top/β-cat* cells were plated at 40%-50% confluences in 12-well plate for 8 hours and then treated with Wnt inhibitors overnight. The luciferase activity of total cell lysates was measured using Luciferase Assay System (Promega). The related TCF-luciferase activity was normalized against the protein concentration of each cell lysate sample.

SW480 tumor xenografts = experiment: Mouse xenografts of SW480 cells; format: in vivo, nude mice; conditions: for tumor volumes / actual tumor sizes at the end of treatment / actual tumor weights at the end of treatment / tumor sizes at the end of treatment / tumor weights at the end of treatment / tumor volume: SW480 xenografts, 10 mg/kg; for actual tumor weights at the end of treatment: day 12 to day 20 (FIG. 8C); for tumor growth: mouse xenograft studies of human colon cancer, summary of FIGS. 7A-D, 8A-C, 9A-C; for tumor volume: day 12 to day 21 (FIG. 9A)
Protocol: 5×10^5 of SW480 cells were injected subcutaneously into the flank area of 6-8-week-old nude mice. Tumor volume was measured by using an electronic caliper and calculated with the formula length×width^2×0.5, every 2 days. 12 days after inoculation, tumor bearing mice were administered Wnt inhibitors (dissolved in 10% DMSO+20% Cremophor EL+70% normal saline) via intraperitoneal injection for 5 days per week for 10 days at 10 mg/kg. Animal body weights were measured before drug treatments and at the end of the experiments. At the end of the experiments, animals were euthanized with carbon dioxide, followed by cervical dislocation. The tumors were dissected and weighed on the digital balance. We housed mice in pathogen-free facilities under 12-h light and 12-h dark cycle. The animal protocol and experimental procedures were approved by the Division of Laboratory Animal Medicine of UCLA and were in accordance with the US National Institute of Health guidelines.

Row | SMILES | Topflash reporter activities induced by LiCl [1] | Wnt/β-catenin-mediated transcription [2] | tumor volumes (SW480 tumor xenografts; day 12 to day 20 (FIG. 8A)) | actual tumor sizes at the end of treatment (SW480 tumor xenografts; day 12 to day 20 (FIG. 8B)) | actual tumor weights at the end of treatment (SW480 tumor xenografts) | tumor volumes (SW480 tumor xenografts; day 12 to 22 (FIG. 7A)) | tumor sizes at the end of treatment (SW480 tumor xenografts; day 12 to 22 (FIG. 7B)) | tumor weights at the end of treatment (SW480 tumor xenografts; day 12 to 22 (FIG. 7C)) | tumor growth (SW480 tumor xenografts) | actual tumor sizes at the end of treatment (SW480 tumor xenografts; day 12 to 22 (FIG. 16A)) | tumor weights at the end of treatment (SW480 tumor xenografts; day 12 to 22 (FIG. 16B)) | tumor volumes (SW480 tumor xenografts; day 12 to 22 (FIG. 16C)) | tumor volume (SW480 tumor xenografts) | tumor sizes at the end of treatment (SW480 tumor xenografts; day 12 to day 21 (FIG. 9B)) | tumor weights at the end of treatment (SW480 tumor xenografts; day 12 to day 21 (FIG. 9C))
1 | CN(C)CCC(=O)N1C/C(=C\c2ccccc2)C(=O)/C(=C/c2ccccc2)C1 [JC001, 3,5-Di((E)-benzylidene)-1-(3-(dimethylamino)propanoyl)piperidin-4-one] | inhibit Topflash reporter activities | significantly inhibited | significantly reduced tumor volumes | reduced the size of tumors recovered | significantly reduced the weight of tumors recovered | – | – | – | – | – | – | – | – | – | –
2 | CN(C)CCC(=O)N1C/C(=C\c2ccc(F)c(F)c2)C(=O)/C(=C/c2ccc(F)c(F)c2)C1 [JC026, 3,5-Bis((E)-3,4-difluorobenzylidene)-1-(3-(dimethylamino)propanoyl)piperidin-4-one] | – | significantly inhibited | – | – | – | significantly reduced tumor volumes | significantly reduced the size of tumors recovered | significantly reduced the weight of tumors recovered | significantly inhibited the tumor growth | – | – | – | – | – | –
3 | CCN(CC)CCC(=O)N1C/C(=C\c2ccc(F)c(F)c2)C(=O)/C(=C/c2ccc(F)c(F)c2)C1 [JC049, 1-(3-(Diethylamino)propanoyl)-3,5-bis((E)-3,4-difluorobenzylidene)piperidin-4-one] | – | significantly inhibited | significantly reduced tumor volumes | reduced the size of tumors recovered | significantly reduced the weight of tumors recovered | significantly reduced tumor volumes | significantly reduced the size of tumors recovered | significantly reduced the weight of tumors recovered | significantly inhibited the tumor growth; also recorded: showed the strongest inhibition | reduced the size of tumors recovered | significantly reduced the weight of tumors recovered | significantly reduced tumor volumes | significantly reduce tumor volume | significantly reduced the size of the tumors recovered | significantly reduce the weight of tumors recovered
4 | CN(C)CCS(=O)(=O)N1C/C(=C\c2ccc(F)c(F)c2)C(=O)/C(=C/c2ccc(F)c(F)c2)C1 [JC060, 3,5-Bis((E)-3,4-difluorobenzylidene)-1-((2-(dimethylamino)ethyl)sulfonyl)piperidin-4-one] | – | significantly inhibited | – | – | – | significantly reduced tumor volumes | significantly reduced the size of tumors recovered | significantly reduced the weight of tumors recovered | significantly inhibited the tumor growth | – | – | – | significantly reduce tumor volume | significantly reduced the size of the tumors recovered | significantly reduce the weight of tumors recovered
5 | CN(C)CCC(=O)NC1C/C(=C\c2ccc(F)c(F)c2)C(=O)/C(=C/c2ccc(F)c(F)c2)C1 (stereo not drawn) [JC070, N-(3,5-Bis((E)-3,4-difluorobenzylidene)-4-oxocyclohexyl)-3-(dimethylamino)propanamide] | – | significantly inhibited | – | – | – | significantly reduced tumor volumes | significantly reduced the size of tumors recovered | significantly reduced the weight of tumors recovered | showed some inhibition, but did not reach significance | – | – | – | – | – | –
6 | CN(C)CCOc1ccc(C(=O)NC2C/C(=C\c3ccc(F)c(F)c3)C(=O)/C(=C/c3ccc(F)c(F)c3)C2)cc1 (stereo not drawn) [JC081, N-(3,5-Bis((E)-3,4-difluorobenzylidene)-4-oxocyclohexyl)-4-(2-(dimethylamino)ethoxy)benzamide] | – | significantly inhibited | – | – | – | – | – | – | significantly inhibited the tumor growth | – | – | – | significantly reduce tumor volume | significantly reduced the size of the tumors recovered | significantly reduce the weight of tumors recovered
